# Test results published in US20250288587A1, “Methods of Treating Fibrosis” (Athira Pharma, Inc., priority 2022, published 2025).
# How the values were obtained:
# Assay type in all cases: in vivo
# CFA-stimulated rats [1] = assay: CFA inflammatory pain model, mechanical allodynia (von Frey test); parameters: key to Mechanical Allodynia, change in sensitivity compared to CFA alone / Mechanical Allodynia, significant reduction in pain behavior vs CFA alone: NS = no statistically significant change in sensitivity compared to CFA alone; + = statistically significant change in sensitivity compared to CFA alone, p < 0.05; conditions: for study days on which sensitivity to mechanical stimulation was reduced: PO, post-dose testing, any tested dose; for PWT (paw withdrawal threshold) vs CFA+vehicle: data not shown
# Method: (§1) Response to peripheral inflammatory stimulus can be modeled by administering complete Freund's adjuvant (CFA), a suspension of desiccated mycobacterium in paraffin oil and mannide monooleate, by subcutaneous injection into the rat's footpad. The introduction of CFA to peripheral tissues leads to a rapid, sustained, inflammatory reaction in the treated tissue within 24 hours. Subcutaneous administration of CFA in the plantar region of the paw induces inflammatory pain behaviors that persist for at least 8 days. CFA treatment also leads to the accumulation of inflammatory cytokines in paw tissue at the site of injury, which, if unresolved, can lead to formation of fibrotic tissue. The extent of inflammatory response to CFA can be assessed by quantification of inflammatory cytokines in paw skin lysate, and inflammatory pain behaviors by mechanical allodynia (von Frey test) and thermal hyperalgesia (Hargreaves test).
# (§2) In one study, Compound 2a was tested for its ability to reduce inflammatory pain behaviors in the CFA inflammation model. On study day 0, […] of CFA was administered subcutaneously in the plantar of the right hind paw. Animals were treated daily with Compound 2a in solution via oral gavage (PO) at doses of 1, 0.1, and 0.025 mg/kg. Treatment began before CFA injection on study day −1 and continued through study day 8.
# Mechanical allodynia was measured using the von Frey test. In this test, rats were placed on a wire mesh and a series of filaments designed to deliver probing force ranging from 4 to 26 grams were applied to the mid-plantar surface of the right hind paw. Animals indicated pain response by lifting the probed paw. The minimal force required to elicit the withdrawal response was recorded as the paw withdrawal threshold (PWT). Von Frey testing was performed 1 hour after Compound 2a dosing on study day 1, 3, and 7, and was also tested pre-dosing on day 7. Statistical analysis was performed using a 1-way ANOVA with Tukey post-test. A p-value below 0.05 was considered statistically significant. Control animals stimulated with CFA but treated with only vehicle had high sensitivity to mechanical stimulation compared to normal control animals.
# (§3) In another study, Compounds 1a, 5a, and 6a were similarly tested against CFA-induced inflammatory stimulation in the right hind foot for their ability to reduce pain behaviors. This study also included quantification of inflammatory cytokine expression in paw skin lysate. Inflammatory pain stimulation with CFA injection and assessment of mechanical and thermal pain behaviors were performed as described above, with the exception that only post-dose pain behavior testing is reported.
# (§4) Intraplantar CFA injection occurred at day 0. Treatment with Compounds 1a, 5a, and 6a occurred at days −2, 1, 3, and 7. At day 8, the rats were terminated and cytokine levels were measured in paw skin and plasma. Tissue from paw bone, joint, and muscle were obtained for H&E staining and analysis. Cytokine levels in test compound-treated animals were compared to CFA-stimulated animals. Analytes included interleukin 4 (IL-4), tumor necrosis factor alpha (TNF-α) and interferon gamma (IFN-γ). Statistical analysis consisted of 1-way ANOVA followed by Dunnett's multiple comparisons post-test. Mechanical allodynia and thermal hyperalgesia were tested 1 hour post-dosing on days 1, 3, and 7. PWT refers to […] paw withdrawal threshold where a higher value corresponds to a higher pain threshold. PWL refers to […] paw withdrawal latency where a higher value corresponds to a higher pain threshold.
# CFA-stimulated rats [2] = assay: CFA inflammatory pain model, thermal hyperalgesia (Hargreaves method); parameters: key to Thermal Hyperalgesia, change in sensitivity compared to CFA alone / Thermal Hyperalgesia, significant reduction in pain behavior vs CFA alone: NS = no statistically significant change in sensitivity compared to CFA alone; + = statistically significant change in sensitivity compared to CFA alone, p < 0.05; conditions: for study days on which thermal sensitivity was reduced: PO, post-dose testing, any tested dose; for PWL (paw withdrawal latency) vs CFA+vehicle: day 7 at each dose, data not shown
# Method: as §1, §2
# Thermal hyperalgesia was measured using the Hargreaves method. A temperature ramp was applied to the right hind paw and the paw withdrawal latency (PWL) was recorded as a measure of sensitivity to thermal stimulation. […] Statistical analysis was performed using a 1-way ANOVA with Tukey post-test. A p-value below 0.05 was considered statistically significant.
# as §3, §4
# [3] = test system: BALB/c mice, CCl4 mouse model of liver fibrosis; assay: CCl4-induced liver fibrosis, plasma AST; conditions: for AST in plasma, improvement compared to disease control: from study day 21, termination day 43
# Method: Liver fibrosis in BALB/c mice was induced by biweekly intraperitoneal injections of carbon tetrachloride (CCl4) from study day 0 to 43. Mice were treated with vehicle, Compound 1a, or positive control, SB535334, beginning at study day 21. At termination (study day 43), plasma was tested for liver function via levels of aspartate aminotransferase (AST).
# AST can be used as a marker of liver damage, because increased levels are released in the blood stream in chronic liver disease.
# CFA-stimulated rats [4] = assay: CFA inflammatory pain model, thermal hyperalgesia (Hargreaves method); conditions: Day 5, 1 hour pre-dosing; data not shown
# CFA-stimulated rats [5] = assay: CFA inflammatory pain model, cytokine expression in paw skin; parameters: key to IFN-γ expression in paw skin, change compared to CFA alone / IL-4 expression in paw skin, change compared to CFA alone / TNF-α expression in paw skin, change compared to CFA alone: NS = no statistically significant change in expression compared to CFA alone; + = statistically significant change in expression compared to CFA alone, p < 0.05; conditions: day 8
# Method: as §1, §3, §4
# [6] = test system: pulmonary LPS-stimulated rats; assay: Immune cell infiltration in BALF, LPS-induced acute pulmonary inflammation; conditions: 0.0075 mg/kg IV, 24 h and 0.5 h before LPS; BALF 4 h post LPS
# [7] = 8 mg/kg PO, Day 1, 1 h post-dose
# [8] = 8 mg/kg PO, Day 3, 1 h post-dose
# [9] = 8 mg/kg PO, Day 7, 1 h post-dose
# [10] = 16 mg/kg PO, Day 1, 1 h post-dose
# [11] = 16 mg/kg PO, Day 3, 1 h post-dose
# [12] = 16 mg/kg PO, Day 7, 1 h post-dose
# [13] = 10 mg/kg PO, Day 1, 1 h post-dose
# [14] = 10 mg/kg PO, Day 3, 1 h post-dose
# [15] = 10 mg/kg PO, Day 7, 1 h post-dose
# [16] = 20 mg/kg PO, Day 1, 1 h post-dose
# [17] = 20 mg/kg PO, Day 3, 1 h post-dose
# [18] = 20 mg/kg PO, Day 7, 1 h post-dose
compound,measurement,setting,value
CCC(C)CN1CC2N(C(=O)c3ccc(C(F)(F)F)cc3)CCC(=O)N2[C@@H](C)C1=O (stereo partly drawn) [Compound 1a],"Mechanical Allodynia, significant reduction in pain behavior vs CFA alone",CFA-stimulated rats [1]; [7],"+ (+ = statistically significant change in sensitivity compared to CFA alone, p < 0.05)"
same,"Mechanical Allodynia, significant reduction in pain behavior vs CFA alone",CFA-stimulated rats [1]; [8],"+ (+ = statistically significant change in sensitivity compared to CFA alone, p < 0.05)"
same,"Mechanical Allodynia, significant reduction in pain behavior vs CFA alone",CFA-stimulated rats [1]; [9],NS
same,"Mechanical Allodynia, significant reduction in pain behavior vs CFA alone",CFA-stimulated rats [1]; [10],"+ (+ = statistically significant change in sensitivity compared to CFA alone, p < 0.05)"
same,"Mechanical Allodynia, significant reduction in pain behavior vs CFA alone",CFA-stimulated rats [1]; [11],"+ (+ = statistically significant change in sensitivity compared to CFA alone, p < 0.05)"
same,"Mechanical Allodynia, significant reduction in pain behavior vs CFA alone",CFA-stimulated rats [1]; [12],"+ (+ = statistically significant change in sensitivity compared to CFA alone, p < 0.05)"
same,study days on which sensitivity to mechanical stimulation was reduced,CFA-stimulated rats [1],"study days 1, 3, and 7"
same,PWT (paw withdrawal threshold) vs CFA+vehicle,CFA-stimulated rats [1]; day 1,statistically significant increase
same,PWT (paw withdrawal threshold) vs CFA+vehicle,"CFA-stimulated rats [1]; day 3, 8 and 16 mg/kg",statistically significant increase
same,PWT (paw withdrawal threshold) vs CFA+vehicle,"CFA-stimulated rats [1]; day 7, 16 mg/kg",statistically significant increase
same,"Thermal Hyperalgesia, significant reduction in pain behavior vs CFA alone",CFA-stimulated rats [2]; [7],NS
same,"Thermal Hyperalgesia, significant reduction in pain behavior vs CFA alone",CFA-stimulated rats [2]; [8],NS
same,"Thermal Hyperalgesia, significant reduction in pain behavior vs CFA alone",CFA-stimulated rats [2]; [9],"+ (+ = statistically significant change in sensitivity compared to CFA alone, p < 0.05)"
same,"Thermal Hyperalgesia, significant reduction in pain behavior vs CFA alone",CFA-stimulated rats [2]; [10],"+ (+ = statistically significant change in sensitivity compared to CFA alone, p < 0.05)"
same,"Thermal Hyperalgesia, significant reduction in pain behavior vs CFA alone",CFA-stimulated rats [2]; [11],"+ (+ = statistically significant change in sensitivity compared to CFA alone, p < 0.05)"
same,"Thermal Hyperalgesia, significant reduction in pain behavior vs CFA alone",CFA-stimulated rats [2]; [12],"+ (+ = statistically significant change in sensitivity compared to CFA alone, p < 0.05)"
same,study days on which thermal sensitivity was reduced,CFA-stimulated rats [2],"study days 1, 3, and 7"
same,PWL (paw withdrawal latency) vs CFA+vehicle,CFA-stimulated rats [2],statistically significant increase
same,AST levels in plasma compared to CCl4-treated mice receiving vehicle,"[3]; 0.5 mg/kg, 8 mg/kg, and 16 mg/kg",modest but non-significant decreases
same,"AST in plasma, improvement compared to disease control",[3]; Dose 0.5 (mg/kg),++ (++ = >26-50% improvement compared to disease control)
same,"AST in plasma, improvement compared to disease control",[3]; Dose 2 (mg/kg),− (− = change of <5% compared to disease control)
same,"AST in plasma, improvement compared to disease control",[3]; Dose 8 (mg/kg),++ (++ = >26-50% improvement compared to disease control)
same,"AST in plasma, improvement compared to disease control",[3]; Dose 16 (mg/kg),++ (++ = >26-50% improvement compared to disease control)
same,PWL (paw withdrawal latency),CFA-stimulated rats [4],statistically significant increase
same,"IFN-γ expression in paw skin, change compared to CFA alone",CFA-stimulated rats [5]; 8 mg/kg PO,"+ (+ = statistically significant change in expression compared to CFA alone, p < 0.05)"
same,"IL-4 expression in paw skin, change compared to CFA alone",CFA-stimulated rats [5]; 8 mg/kg PO,"+ (+ = statistically significant change in expression compared to CFA alone, p < 0.05)"
same,"TNF-α expression in paw skin, change compared to CFA alone",CFA-stimulated rats [5]; 8 mg/kg PO,"+ (+ = statistically significant change in expression compared to CFA alone, p < 0.05)"
same,"IFN-γ expression in paw skin, change compared to CFA alone",CFA-stimulated rats [5]; 16 mg/kg PO,NS
same,"IL-4 expression in paw skin, change compared to CFA alone",CFA-stimulated rats [5]; 16 mg/kg PO,"+ (+ = statistically significant change in expression compared to CFA alone, p < 0.05)"
same,"TNF-α expression in paw skin, change compared to CFA alone",CFA-stimulated rats [5]; 16 mg/kg PO,"+ (+ = statistically significant change in expression compared to CFA alone, p < 0.05)"
same,"Neutrophils in BALF, reduction in cell count vs disease control",[6],++ (++ = >25% reduction in cell count vs disease control)
same,"Total Leukocytes in BALF, reduction in cell count vs disease control",[6],++ (++ = >25% reduction in cell count vs disease control)
CCC(C)CN1CC2N(Cc3ccc(C(F)(F)F)cc3)CCC(=O)N2[C@@H](C)C1=O (stereo partly drawn) [Compound 5a],"Mechanical Allodynia, significant reduction in pain behavior vs CFA alone",CFA-stimulated rats [1]; [13],"+ (+ = statistically significant change in sensitivity compared to CFA alone, p < 0.05)"
same,"Mechanical Allodynia, significant reduction in pain behavior vs CFA alone",CFA-stimulated rats [1]; [14],NS
same,"Mechanical Allodynia, significant reduction in pain behavior vs CFA alone",CFA-stimulated rats [1]; [15],NS
same,"Mechanical Allodynia, significant reduction in pain behavior vs CFA alone",CFA-stimulated rats [1]; [16],"+ (+ = statistically significant change in sensitivity compared to CFA alone, p < 0.05)"
same,"Mechanical Allodynia, significant reduction in pain behavior vs CFA alone",CFA-stimulated rats [1]; [17],NS
same,"Mechanical Allodynia, significant reduction in pain behavior vs CFA alone",CFA-stimulated rats [1]; [18],NS
same,study days on which sensitivity to mechanical stimulation was reduced,CFA-stimulated rats [1],study day 1
same,PWT (paw withdrawal threshold) vs CFA+vehicle,CFA-stimulated rats [1]; day 1,statistically significant increase
same,"Thermal Hyperalgesia, significant reduction in pain behavior vs CFA alone",CFA-stimulated rats [2]; [13],"+ (+ = statistically significant change in sensitivity compared to CFA alone, p < 0.05)"
same,"Thermal Hyperalgesia, significant reduction in pain behavior vs CFA alone",CFA-stimulated rats [2]; [14],NS
same,"Thermal Hyperalgesia, significant reduction in pain behavior vs CFA alone",CFA-stimulated rats [2]; [15],"+ (+ = statistically significant change in sensitivity compared to CFA alone, p < 0.05)"
same,"Thermal Hyperalgesia, significant reduction in pain behavior vs CFA alone",CFA-stimulated rats [2]; [16],NS
same,"Thermal Hyperalgesia, significant reduction in pain behavior vs CFA alone",CFA-stimulated rats [2]; [17],NS
same,"Thermal Hyperalgesia, significant reduction in pain behavior vs CFA alone",CFA-stimulated rats [2]; [18],"+ (+ = statistically significant change in sensitivity compared to CFA alone, p < 0.05)"
same,study days on which thermal sensitivity was reduced,CFA-stimulated rats [2],study days 1 and 7
same,PWL (paw withdrawal latency) vs CFA+vehicle,CFA-stimulated rats [2],statistically significant increase
same,"IFN-γ expression in paw skin, change compared to CFA alone",CFA-stimulated rats [5]; 10 mg/kg PO,"+ (+ = statistically significant change in expression compared to CFA alone, p < 0.05)"
same,"IL-4 expression in paw skin, change compared to CFA alone",CFA-stimulated rats [5]; 10 mg/kg PO,"+ (+ = statistically significant change in expression compared to CFA alone, p < 0.05)"
same,"TNF-α expression in paw skin, change compared to CFA alone",CFA-stimulated rats [5]; 10 mg/kg PO,"+ (+ = statistically significant change in expression compared to CFA alone, p < 0.05)"
same,"IFN-γ expression in paw skin, change compared to CFA alone",CFA-stimulated rats [5]; 20 mg/kg PO,"+ (+ = statistically significant change in expression compared to CFA alone, p < 0.05)"
same,"IL-4 expression in paw skin, change compared to CFA alone",CFA-stimulated rats [5]; 20 mg/kg PO,"+ (+ = statistically significant change in expression compared to CFA alone, p < 0.05)"
same,"TNF-α expression in paw skin, change compared to CFA alone",CFA-stimulated rats [5]; 20 mg/kg PO,"+ (+ = statistically significant change in expression compared to CFA alone, p < 0.05)"
